Among the data in ChEMBL document CHEMBL5321274, “Second-Generation AUTACs for Targeted Autophagic Degradation” (J Med Chem, 2023) are Activity values, retold here.

Active and inactive are the calls of the source. The rule behind the calls is not given here.

Data set [1] concerns HeLa. Put plainly: Induction of autophagy mediated Halotag-fused EGFP (unknown origin) degradation expressed in human HeLa cells assessed as reduction in EGFP-HT substrate level at 0.01 to 1 uM measured after 24 hrs by fluorescence microscopic analysis. Particulars: dose 0.01-1 µM. The data set is classed as cell-based.
For data set [2], the system named is HeLa. Briefly: Induction of autophagy mediated Halotag-fused EGFP (unknown origin) degradation expressed in human HeLa cells assessed as reduction in EGFP-HT substrate level at 0.1 to 10 uM measured after 24 hrs by fluorescence microscopic analysis. In kind it is cell-based. Particulars: dose 0.1-10 µM.
Data set [3] relates to HeLa. Put plainly: Induction of EGFP-tagged FKBP12 degradation in human HeLa cells assessed as reduction in FKBP12 protein level at 1 to 10 uM incubated for 48 hrs in presence of 100 uM 8H-FBnG by immunoblot analysis. The data set is classed as cell-based. The settings on record: dose 1-10 µM.
The test system of data set [4] is MEF. Put plainly: Induction of EGFP-tagged FKBP12 degradation in p62-/- MEF cells assessed as reduction in FKBP12 level incubated for 48 hrs by immunoblot analysis. The data set is classed as cell-based. The settings on record: Mus musculus. Background: Immunoblotting shows a protein as a band on a membrane.
Data set [5] concerns MEF. Put plainly: Induction of EGFP-tagged FKBP12 degradation in […] MEF cells assessed as reduction in FKBP12 level incubated for 48 hrs by immunoblot analysis. In kind it is cell-based. The settings on record: Mus musculus.
Data set [6] relates to HeLa. Briefly: Induction of EGFP-tagged FKBP12 degradation in human HeLa cells assessed as reduction in FKBP12 protein level at 0.001 to 10 uM incubated for 48 hrs in presence of bafilomycin Al treated for last 12 hrs by immunoblot analysis. The data set is classed as cell-based. Particulars: dose 0.001-10 µM.
For data set [7], the system named is HeLa. Briefly: Effect on FKBP12 mRNA transcription level in human HeLa cells at 0.1 to 10 uM incubated for 48 hrs by RT-PCR analysis. The data set is classed as functional, cell-based. Particulars: dose 0.1-10 µM.
Data set [8] has as its system HeLa. Briefly: Induction of EGFP-tagged FKBP12 degradation in human HeLa cells assessed as protein knockdown at 1 uM incubated for 48 hrs by immunoblot analysis. The data set is classed as cell-based.
The test system of data set [9] is HeLa. Briefly: Induction of autophagy mediated Halotag-fused EGFP (unknown origin) degradation expressed in human HeLa cells assessed as reduction in EGFP-HT substrate level measured after 24 hrs by fluorescence microscopic analysis. In kind it is cell-based. Particulars: dose 1-10 µM.
The test system of data set [10] is MEF. Briefly: Induction of autophagy mediated Halotag-fused EGFP (unknown origin) degradation transiently expressed in Atg5-/- MEF cells assessed as reduction in EGFP-HT substrate level at 1 uM measured after 24 hrs by fluorescence microscopic analysis. The data set is classed as cell-based.
For data set [11], the system named is MEF. Put plainly: Induction of autophagy mediated Halotag-fused EGFP (unknown origin) degradation transiently expressed in Atg5+/+ MEF cells assessed as reduction in EGFP-HT substrate level at 1 uM measured after 24 hrs by fluorescence microscopic analysis. The data set is classed as cell-based.
The subject of data set [12] is HeLa. Briefly: Induction of autophagy mediated Halotag-fused EGFP (unknown origin) degradation expressed in human HeLa cells assessed as reduction in EGFP-HT substrate level at <1 uM measured after 24 hrs by fluorescence microscopic analysis. The data set is classed as cell-based.
Data set [13] deals with HeLa. Put plainly: Induction of autophagy mediated Rosella/Halotag-fused EGFP (unknown origin) degradation expressed in human HeLa cells assessed as lysosomal degradation of EGFP-HT substrate at 1 uM incubated for 24 hrs by fluorescence microscopic analysis. The data set is classed as cell-based.
The test system of data set [14] is HeLa. Put plainly: Induction of autophagy mediated Halotag-fused EGFP (unknown origin) degradation expressed in human HeLa cells assessed as reduction in EGFP-HT substrate level at 1 uM incubated for 24 hrs in presence of bafilomycin Al by fluorescence microscopic analysis. In kind it is cell-based.
In data set [15] the test system is HeLa. Briefly: Cytotoxicity against human HeLa cells expressing Halotag-fused EGFP assessed as reduction in cell survival rate at 0.001 to 100 uM. In kind it is toxicity, cell-based. Particulars: dose 0.001-100 µM.
The test system of data set [16] is HeLa. Briefly: Induction of autophagy mediated Halotag-fused EGFP (unknown origin) degradation expressed in human HeLa cells assessed as reduction in EGFP-HT substrate level at 1 to 10 uM measured after 12 to 24 hrs by fluorescence microscopic analysis. The data set is classed as cell-based. The settings on record: dose 1-10 µM, time 12-24 hrs.

Take `CC(=O)NC(CSc1nc2c(=O)[nH]c(N)nc2n1Cc1cccc(F)c1)C(=O)NCCOCCOCCOCCOCCOCCCCCCCl` (single isomer, unassigned): the outcome with HeLa [1] was inactive.

On to `Fc1ccc(Cn2c(-c3cnn(CCOCCOCCOCCOCCOCCCCCCCl)c3)nc3ccccc32)cc1`, for which the result with HeLa [2] was inactive.

Consider `CC(=O)NC(CSc1nc2c(=O)[nH]c(N)nc2n1Cc1ccccc1F)C(=O)NCCOCCOCCOCCOCCOCCCCCCCl` (single isomer, unassigned), for which the outcome with HeLa [1] was inactive.

For `CCC(C)(C)C(=O)C(=O)N1CCCC[C@H]1C(=O)O[C@H](CCc1ccc(OC)c(OC)c1)c1cccc(NC(=O)CCC(=O)NCCCOCCOCCOCCCn2cc(-c3nc4c(=O)[nH]c(N)nc4n3Cc3ccc(F)cc3)cn2)c1`, the outcome in the data set with HeLa [3], with MEF [4], with MEF [5], in the data set with HeLa [6] and with HeLa [7] was inactive. Also, the outcome with HeLa [8] was Active.

With `Nc1ncnc2c1nc(-c1cnn(CCOCCOCCOCCOCCOCCCCCCCl)c1)n2Cc1ccc(F)cc1`, the result with HeLa [2] was inactive.

In the case of `CC(=O)NC(CSc1nc2c(=O)[nH]c(N)nc2n1Cc1ccc(Cl)cc1)C(=O)NCCOCCOCCOCCOCCOCCCCCCCl` (single isomer, unassigned), the Activity entry with HeLa [9] is “Dose-Dependent Effect”.

As to `CC(=O)NC(CSc1nc2c(=O)[nH]c(N)nc2n1Cc1ccc(C)cc1)C(=O)NCCOCCOCCOCCOCCOCCCCCCCl` (single isomer, unassigned), the result with HeLa [1] was inactive.

Turning to `CC(=O)NC(CSc1nc2c(=O)[nH]c(N)nc2n1Cc1ccccc1)C(=O)NCCOCCOCCOCCOCCOCCCCCCCl` (single isomer, unassigned), the outcome with HeLa [1] was inactive.

For `Nc1nc2c(nc(-c3cnn(CCOCCOCCOCCOCCOCCCCCCCl)c3)n2Cc2ccc(F)cc2)c(=O)[nH]1`, the result in the data set on MEF [10] and in the data set with HeLa [14] was inactive. Besides, the outcome in the data set with MEF [11], in the data set with HeLa [12], in the data set with HeLa [1], in the data set with HeLa [13] and with HeLa [16] was Active. For the same compound, the Activity entry with HeLa [15] is listed as “Non-Toxic”.

For the compound `CC(=O)NC(CSc1nc2c(=O)[nH]c(N)nc2n1Cc1ccc(C#N)cc1)C(=O)NCCOCCOCCOCCOCCOCCCCCCCl` (single isomer, unassigned), the outcome in the data set on HeLa [1] was inactive.

For the compound `Nc1nc2c(nc(-c3ccc(OCCOCCOCCOCCOCCOCCCCCCCl)cc3)n2Cc2ccc(F)cc2)c(=O)[nH]1`, in the data set with HeLa [1], the outcome was Active.

Regarding `CC(=O)NC(CSc1nc2c(=O)[nH]c(N)nc2n1Cc1ccc(S(C)(=O)=O)cc1)C(=O)NCCOCCOCCOCCOCCOCCCCCCCl` (single isomer, unassigned), the outcome with HeLa [1] was inactive.

Turning to `Nc1nc2c(nc(-c3cccc(OCCOCCOCCOCCOCCOCCCCCCCl)c3)n2Cc2ccc(F)cc2)c(=O)[nH]1`, the result with HeLa [1] was Active.

As for `O=c1[nH]cnc2c1nc(-c1cnn(CCOCCOCCOCCOCCOCCCCCCCl)c1)n2Cc1ccc(F)cc1`, the result in the data set with HeLa [2] was inactive.

With `Cn1c(=O)c2nc(-c3cnn(CCOCCOCCOCCOCCOCCCCCCCl)c3)n(Cc3ccc(F)cc3)c2n(C)c1=O`, the result with HeLa [2] was inactive.

Turning to `Nc1nc2c(nc(-c3cn(CCOCCOCCOCCOCCOCCCCCCCl)nn3)n2Cc2ccc(F)cc2)c(=O)[nH]1`, in the data set on HeLa [1], the result was Active.

For the compound `Fc1ccc(Cn2ccnc2-c2cnn(CCOCCOCCOCCOCCOCCCCCCCl)c2)cc1`, the result in the data set on HeLa [2] was inactive.

For the compound `COc1ccc(Cn2c(SCC(NC(C)=O)C(=O)NCCOCCOCCOCCOCCOCCCCCCCl)nc3c(=O)[nH]c(N)nc32)cc1` (single isomer, unassigned), the outcome in the data set with HeLa [1] was inactive.
